Test results: patent US20070142306A1, “Strontium-based complexes, pharmaceutical compositions and dietetic products” (MEDESIS PHARMA SA, priority 2003, published 2007)
Several values for one entry are separate records, joined by “and”; a condition that tells them apart may be missing. Identical values can stand only once. One block for each molecule: values may come before it.

Experiments:
[1] = Assay of strontium in femoral bones by atomic absorption spectrometry; type: in vivo, rat; conditions: 3 weeks treatment, 68.2 mg/kg/d
Protocol: (§1) Administration to female Wistar rats weighing 200 g.
(§2) Volume of administration: 2 ml/kg.
(§3) Route of administration: Rectal route.
(§4) Dose frequency: Once a day—every 24 hours.
(§5) Treatment duration: 21 days.
(§6) The animals were sacrificed and the femoral bones were removed, cleaned of their tendinous and muscular attachments, then frozen.
Strontium was then assayed in the bones by atomic absorption spectrometry.
The assay of strontium in bone was carried out.

[2] = tested on: female Wistar rats; experiment: Femoral head (epiphyseal) diameter / bone growth after 21 days rectal treatment; type: in vivo, rat
Protocol: as §1
Number of animals per group: 6 and 8.
Text complex: NP05 (composition produced according to the invention, in which only the quantity of strontium varies).
as §2, §3, §4, §5, §6
The femoral epiphyseal diameter was measured.

[3] = tested on: rat model; conditions: administration for 8 weeks; cited from earlier work
[4] = tested on: osteoblast; conditions: cited from earlier work
[5] = tested on: osteoclast; conditions: cited from earlier work
[6] = tested on: postmenopausal women; conditions: 2 mg per day, two years; cited from earlier work
[7] = tested on: animal; conditions: cited from earlier work
[8] = tested on: humans; conditions: in humans; cited from earlier work

- strontium incorporation in bone compared with the controls [1]: 4
Structure (SMILES): [Cl-].[Cl-].[Sr+2] [Strontium chloride, strontium chloride]
- effect on bone growth ([2]; 3 weeks treatment, compared with control animals (NP05 also with the strontium chloride group)): no effect
- Diameter of femoral head, Mean ([2]; group mean, 68.2 mg/kg strontium metal, rectal, 21 days): 4.01 millimeters
- Diameter of femoral head, Femur 1 ([2]; individual rats, 68.2 mg/kg strontium metal, rectal, once a day, 21 days): 4 millimeters
- Diameter of femoral head, Femur 2 ([2]; individual rats, 68.2 mg/kg strontium metal, rectal, once a day, 21 days, 68.2 mg/kg): 4 millimeters (7×) and 4.1 millimeters
- minimum dose stimulating bone growth [3]: 68.2 mg of strontium (metal)
- osteoblast proliferation [4]: stimulation
- osteoclast multiplication [5]: inhibition

Structure (SMILES): N#Cc1c(N(CC(=O)[O-])CC(=O)[O-])sc(C(=O)[O-])c1CC(=O)[O-].[Sr+2].[Sr+2] [strontium ranelate]
- minimum dose stimulating bone growth [3]: 68.2 mg of strontium (metal)
- bone alkaline phosphatase (marker of bone formation) [6]: significantly increased
- bone mineral density in the lumbar spine [6]: significant increase
- marker of bone resorption [6]: decreased
- osteoblast proliferation [4]: stimulation
- osteoclast multiplication [5]: inhibition
- dose required for therapeutic activity in animal studies ([7]; as strontium ranelate, corresponding to 68.2 mg of strontium metal): 200 mg per day
- dose causing toxic effects (osteomalacic bone lysis) ([7]; ranelate dose, four times the active dose): above 800 mg per day
- amount necessary to obtain therapeutic activity [8]: 2 g/day
